{"source": "patent US8828950B2", "about": "“Caspase inhibitors in the treatment of infection-associated preterm delivery” (Cedars-Sinai Medical Center, priority 2007, dated 2014)", "key": {"[1]": {"system": "pregnant mice injected with LPS", "assay": "LPS-induced pup mortality/abortion in pregnant Cox2/luciferase mice (bioluminescence imaging)", "type": "in vivo, mouse", "conditions": "for pup (fetal) mortality / abortion after LPS: 0.25 mg ip 5-30 minutes prior to each ip LPS injection, 14 day pregnant mouse", "description": "Therefore, the use of caspase inhibitors confers a protective effect not seen by merely controlling infection through the use of antibiotics. As one of skill in the art will realize that the murine model can provide a guide to expected outcomes in human pregnancy, it is believed that caspase inhibitor treatment will be effective in the treatment of pregnant women with intrauterine infection so as to prevent preterm delivery and improve pregnancy outcome. This is a novel mammalian model for the improvement of pregnancy outcome.\nOur experimental test method is based on the use of a mouse model in which inflammation (as assessed by Cox2 promoter activation) is detected optically by using a transgenic animal in which activation of the promoter results in synthesis of luciferase. When luciferin is subsequently injected, the presence of luciferase is detected by a sensitive camera as the production of light. The detected inflammation is indicative of the infection caused by the LPS injection.\nIn FIG. 1, pregnant mice are imaged. The mice were first mated with Cox2/luciferase males so that the pups would be positive for the Cox2/luciferase construct. The mice were treated with LPS which is normally produced by bacteria and results in inflammation. We injected pregnant mice with 0.1 microgram/ml LPS intraperitoneally (ip) for the control mice 0-24 hours (using a 2, 4, 6, 12 hour time course) prior to the imaging. The resulting inflammation causes the upregulation of Cox2 promoter in the pups resulting in the synthesis of luciferase. […] The treatment mice were given 0.25 mg ip of the pancaspase inhibitor 5-30 minutes prior to each LPS injection.\nIn the case of the control mouse (right-hand side of FIG. 1) inflammation results in the abortion of the pups (no bioluminescence detected). […] Thus, in the case of inflammation resulting from infection (as is common in cases of preterm delivery in humans) effective treatment includes antibiotic to reduce or eliminate the infection and caspase inhibitor to prevent preterm delivery."}, "[2]": {"system": "pregnant CD1 mice injected with HK-GBS", "assay": "HK-GBS-induced preterm delivery in day 14.5 pregnant CD1 mice", "type": "in vivo, mouse", "protocol": "To assess whether caspase inhibition prevented HK-GBS-induced preterm delivery, unanesthetized day 14.5 pregnant CD1 mice (Harlan Laboratories, Madison, Wis.), which breed more effectively than inbred C57BL/6J mice, were pre-treated intraperitoneally with PBS, DMSO or the pancaspase inhibitor Z-VAD-FMK (10 mg/kg) 30 minutes prior to intraperitoneal injection with either 10^9 HK-GBS bacteria or medium. There were no differences in delivery outcomes following intraperitoneal injection with GBS whether or not animals were pretreated with either PBS or DMSO (diluents for the caspase inhibitor). Therefore these separate control pre-treatments are combined for the analyses.\nChi-square analysis was done to assess the effect of Z-VAD-FMK pretreatment on HK-GBS-induced preterm delivery.\nBased upon that observation, we hypothesized that the generalized inhibition of caspases would prevent microbial antigen-induced preterm delivery in the mouse pregnancy model. In order to test this hypothesis we pre-treated day 14.5 pregnant CD1 mice either with Z-VAD-FMK (10 mg/kg dissolved in DMSO/PBS) or with medium intraperitoneally 30 minutes prior to intraperitoneal HK-GBS injection."}, "[3]": {"system": "primary human trophoblasts and fibroblasts", "conditions": "in vitro pretreatment; Equils et al., 2006; cited from earlier work"}}, "note": "Entries after “also recorded” stand apart in the source; their conditions may differ. Residues, ends and D or L forms follow the SMILES beside them. *: point of attachment. Cbz = O=C(OCc1ccccc1)*; CH2F = FC*"}
{"smiles": "COC(=O)C[C@H](NC(=O)[C@H](C)NC(=O)[C@@H](NC(=O)OCc1ccccc1)C(C)C)C(=O)CF", "note": "[Z-VAD-FMK, carbobenzoxy-valyl-alanyl-aspartyl-[O-methyl]-fluoromethylketone] (Cbz-Val-Ala-Asp(OMe)-CH2F)", "values": [{"measurement": "pup (fetal) mortality / abortion after LPS", "setting": "[1]", "value": "prevents pup mortality; also recorded: the pups do not abort"}, {"measurement": "pup (fetal) mortality / abortion after LPS", "setting": "[1]; listed as Z-VAD FMK", "value": "reduces fetal mortality"}, {"measurement": "pup (fetal) mortality / abortion after LPS", "setting": "[1]; listed as pancaspase inhibitor", "value": "maintenance of pregnancy"}, {"measurement": "inflammation as assessed by Cox2 promoter activation (bioluminescence)", "setting": "[1]; 0.25 mg ip prior to ip LPS injection", "value": "continued inflammation; also recorded: does not prevent inflammation"}, {"measurement": "Delivery <18 hr (%)", "setting": "[2]; 10 mg/kg ip 30 minutes prior to ip 10^9 HK-GBS, 1 of n = 6, GBS alone 12 (86%) of n = 14, p value 0.0072", "value": "1 (17%)"}, {"measurement": "Delivery 18-24 hrs (%)", "setting": "[2]; 10 mg/kg ip 30 minutes prior to ip 10^9 HK-GBS, 2 of n = 6, GBS alone 0 of n = 14, p value 0.079", "value": "2 (33%)"}, {"measurement": "Preterm Delivery (<24 hours)", "setting": "[2]; 10 mg/kg ip 30 minutes prior to ip 10^9 HK-GBS, 3 of n = 6, GBS alone 12 (86%) of n = 14, p value 0.13", "value": "3 (50%)"}, {"measurement": "effect on HK-GBS-induced preterm delivery", "setting": "[2]; ip pre-treatment 10 mg/kg, ip HK-GBS", "value": "delayed i.p. HK-GBS-induced preterm delivery; also recorded: significantly delayed preterm delivery at 18 hours"}, {"measurement": "cHSP60-induced apoptosis", "setting": "[3]", "value": "prevented Chlamydia heat shock protein (cHSP60)-induced apoptosis"}]}
